Data on nine molecules can be found in patent US20260317324A1, “BIFUNCTIONAL COMPOUNDS FOR DEGRADING BRAF VIA UBIQUITIN PROTEOSOME PATHWAY” (Nurix Therapeutics, Inc., priority 2023, published 2026).

The structures appear in SMILES notation.

Assay type in all cases: cell-based
The target of one assay is T1, BRAF V600E (Homo sapiens, UniProt P15056, V600E).
T1 construct: endogenous C-terminal HiBiT fusion tag on BRAF V600E allele; endogenous in cells; host or cells: A375 clone 1F10 (CRISPR-Cas9 knock-in of the HiBiT tag; parental A375 from ATCC)
T1 sequence (P15056 whole entry V600E, the tested form may be a part): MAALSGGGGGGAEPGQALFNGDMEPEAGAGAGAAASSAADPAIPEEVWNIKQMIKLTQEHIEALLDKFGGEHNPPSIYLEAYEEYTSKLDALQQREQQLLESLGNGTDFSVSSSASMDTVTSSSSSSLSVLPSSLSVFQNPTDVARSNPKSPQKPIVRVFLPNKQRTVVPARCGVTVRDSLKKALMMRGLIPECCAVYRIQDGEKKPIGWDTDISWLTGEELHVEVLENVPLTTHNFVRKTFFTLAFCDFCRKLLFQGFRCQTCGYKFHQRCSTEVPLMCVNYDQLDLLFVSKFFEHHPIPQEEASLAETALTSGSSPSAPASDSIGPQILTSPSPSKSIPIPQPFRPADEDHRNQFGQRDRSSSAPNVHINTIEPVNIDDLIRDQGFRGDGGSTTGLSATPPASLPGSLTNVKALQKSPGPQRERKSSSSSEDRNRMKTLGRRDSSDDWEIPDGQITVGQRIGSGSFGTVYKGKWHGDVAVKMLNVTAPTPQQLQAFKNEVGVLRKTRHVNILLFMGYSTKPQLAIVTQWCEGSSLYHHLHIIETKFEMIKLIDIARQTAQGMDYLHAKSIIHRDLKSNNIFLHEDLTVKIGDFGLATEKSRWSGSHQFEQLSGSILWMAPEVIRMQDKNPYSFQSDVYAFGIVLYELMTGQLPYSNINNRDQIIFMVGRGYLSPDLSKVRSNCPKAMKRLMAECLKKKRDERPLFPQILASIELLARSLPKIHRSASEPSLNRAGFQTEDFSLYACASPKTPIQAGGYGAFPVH
Briefly: BRAF HiBiT degradation assay, C-terminal HiBiT-tagged BRAF V600E A375 cells (clone 1F10), Nano-Glo HiBiT Lytic assay. Particulars: for Dmax: A-375. In outline: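 Steps: seed HiBiT-tagged A375 clone 1F10 cells; incubate 24 h, 37 °C, 5% CO2; add compound (11 half-log points from 1 μM, 0.2% DMSO); lyse with HiBiT detection reagent plus LgBiT for 10 min; read luminescence; fit % protein remaining against concentration.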

In the next assay the target is T2, BRAF G466V (Homo sapiens, UniProt P15056, G466V).
T2 construct: Horizon Discovery (HCT-116 BRAF−/− cells); host or cells: HCT-116 BRAF−/− cells, clone 8, lentiviral transduction
T2 sequence (P15056 whole entry G466V): as the sequence (P15056 whole entry V600E, the tested form may be a part) above, with G466V, E600V counted along it
Briefly: BRAF HiBiT degradation assay, C-terminal HiBiT-tagged BRAF G466V overexpressed in HCT-116 BRAF−/− cells (clone 8), Nano-Glo HiBiT Lytic assay. In outline: (§1)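 We quantified degradation of the C-terminally HiBiT-tagged, overexpressed mutant by lytic luminescence, normalizing to DMSO-treated cells with wild-type HCT-116 background subtracted. Dose series ran from 1 μM to 0.01 nM at 0.2% DMSO. Observed Dmax is % degraded at maximal effect.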
Background: With HiBiT, luminescence reflects the tagged protein that the partner subunit can reach.

The target in another assay is T3, BRAF G469A (Homo sapiens, UniProt P15056, G469A).
T3 construct: Horizon Discovery (HCT-116 BRAF−/− cells); host or cells: HCT-116 BRAF−/− cells, clone 34, lentiviral transduction
T3 sequence (P15056 whole entry G469A): as the sequence (P15056 whole entry V600E, the tested form may be a part) above, with G469A, E600V counted along it
Nature of the assay: BRAF HiBiT degradation assay, C-terminal HiBiT-tagged BRAF G469A overexpressed in HCT-116 BRAF−/− cells (clone 34), Nano-Glo HiBiT Lytic assay. In outline: as §1

A further assay concerns the target T4, BRAF D594G (Homo sapiens, UniProt P15056, D594G).
T4 construct: Horizon Discovery (HCT-116 BRAF−/− cells); host or cells: HCT-116 BRAF−/− cells, clone 63, lentiviral transduction
Briefly: BRAF HiBiT degradation assay, C-terminal HiBiT-tagged BRAF D594G overexpressed in HCT-116 BRAF−/− cells (clone 63), Nano-Glo HiBiT Lytic assay. The procedure, abridged:
as §1

[1] abbreviates: A375 (BRAF V600E), DC50 at 50%: fitted conc. at Y=50.
Where [2] appears, read: A375 (BRAF V600E), percentage protein degraded at maximal compound effect relative to DMSO.
[3] abbreviates: BRAF G466V, DC50 at 50%: fitted conc. at Y=50.
[4] abbreviates: HCT-116, BRAF G466V, percentage protein degraded at maximal compound effect relative to DMSO.
Where [5] appears, read: Class 2, BRAF G469A, DC50 at 50%: fitted conc. at Y=50.
Setting [6] is: HCT-116, Class 2, BRAF G469A, percentage protein degraded at maximal compound effect relative to DMSO.
[7] abbreviates: BRAF D594G, DC50 at 50%: fitted conc. at Y=50.
Where [8] appears, read: HCT-116, BRAF D594G, percentage protein degraded at maximal compound effect relative to DMSO.
Where [9] appears, read: A375 (BRAF V600E, Class 1), DC50 at 50% degradation.
[10] abbreviates: A375 (BRAF V600E, Class 1), observed Dmax, % protein degraded relative to DMSO control.
Where [11] appears, read: BRAF G466V (Class 3), HCT-116 BRAF−/− cells, DC50 at 50% degradation.
Setting [12] is: BRAF G466V (Class 3), HCT-116 BRAF−/− cells, observed Dmax relative to DMSO control.
[13] abbreviates: BRAF G469A (Class 2), HCT-116 BRAF−/− cells, DC50 at 50% degradation.
[14] abbreviates: BRAF G469A (Class 2), HCT-116 BRAF−/− cells, observed Dmax relative to DMSO control.
Where [15] appears, read: BRAF D594G (Class 3), HCT-116 BRAF−/− cells, DC50 at 50% degradation.
The mark [16] stands for this setting: BRAF D594G (Class 3), HCT-116 BRAF−/− cells, observed Dmax relative to DMSO control.

T4 sequence (P15056 whole entry D594G): as the sequence (P15056 whole entry V600E, the tested form may be a part) above, with D594G, E600V counted along it

As usually defined, the DC50 is the midpoint of the concentration-degradation curve. As usually defined, the Dmax is the greatest extent of degradation seen. Low values mean shallow degradation, high ones deep degradation. With `CCCS(=O)(=O)Nc1cccc(-c2nc(C(C)(C)C)sc2-c2ccnc(Nc3cnn(C4CCN(C(=O)[C@H]5CC[C@H](Oc6ccc(C7CCC(=O)NC7=O)cn6)CC5)CC4)c3)n2)c1F` (mixture of isomers) [Compound 109, N-[3-(2-tert-butyl-5-{2-[(1-{1-[(1r,4r)-4-({5-[(3RS)-2,6-dioxopiperidin-3-yl]pyridin-2-yl}oxy)cyclohexanecarbonyl]piperidin-4-yl}-1H-pyrazol-4-yl)amino]pyrimidin-4-yl}-1,3-thiazol-4-yl)-2-fluorophenyl]propane-1-sulfonamide], the half-maximal degradation concentration (DC50) on BRAF V600E (setting [1]) is under 10 nM; on BRAF G466V (setting [3]), over 500 nM; at BRAF G469A (setting [5]), over 500 nM; on BRAF D594G (setting [7]), over 500 nM. Moreover, the Dmax on BRAF V600E (setting [2]) is over 70%; on BRAF G466V (setting [4]) it was under 30%; at BRAF G469A (setting [6]), under 30%; on BRAF D594G (setting [8]), under 30%.
For the molecule `O=C1CCN(c2ccc(N3CCC(CN4CCN(c5ccc(-n6cc(-c7cc(Cl)cc(NS(=O)(=O)N8CC(F)C8)c7F)c(-c7ccncc7)n6)c(F)c5)CC4)CC3)nc2)C(=O)N1` [Compound 369, N-[5-chloro-3-(1-{4-[4-({1-[5-(2,4-dioxo-1,3-diazinan-1-yl)pyridin-2-yl]piperidin-4-yl}methyl)piperazin-1-yl]-2-fluorophenyl}-3-(pyridin-4-yl)-1H-pyrazol-4-yl)-2-fluorophenyl]-3-fluoroazetidine-1-sulfonamide], the half-maximal degradation concentration (DC50) on BRAF V600E (setting [9]) was under 10 nM; on BRAF G466V (setting [11]), 10 to 50 nM; at BRAF G469A (setting [13]), under 10 nM; on BRAF D594G (setting [15]) it was under 10 nM. Moreover, the greatest degradation seen (Dmax) on BRAF V600E (setting [10]) was over 70%; on BRAF G466V (setting [12]) it was 30 to 70%; on BRAF G469A (setting [14]), 30 to 70%; at BRAF D594G (setting [16]) it was 30 to 70%.
Regarding `CCCS(=O)(=O)Nc1cccc(-c2nc(C(C)(C)C)sc2-c2ccnc(Nc3ccc(N4CCN(C(=O)C5CCN(c6ccc(C7CCC(=O)NC7=O)cc6)CC5)CC4)c(F)c3)n2)c1F` (racemic) [Compound 65, Rac-N-(3-{2-tert-butyl-5-[2-({4-[4-(1-{4-[(3R)-2,6-dioxopiperidin-3-yl]phenyl}piperidine-4-carbonyl)piperazin-1-yl]-3-fluorophenyl}amino)pyrimidin-4-yl]-1,3-thiazol-4-yl}-2-fluorophenyl)propane-1-sulfonamide], the half-maximal degradation concentration (DC50) is under 10 nM at BRAF V600E (setting [1]), over 500 nM at BRAF G466V (setting [3]), over 500 nM at BRAF G469A (setting [5]) and over 500 nM on BRAF D594G (setting [7]). Besides, the Dmax is over 70% on BRAF V600E (setting [2]), 30 to 70% at BRAF G466V (setting [4]), 30 to 70% on BRAF G469A (setting [6]) and 30 to 70% at BRAF D594G (setting [8]).
Take `CCN(C)S(=O)(=O)Nc1cc(Cl)cc(-c2cn(-c3ccc(N4CCN(CC5CCN(c6ccc(N7CCC(=O)NC7=O)cc6)CC5)CC4)cn3)nc2-c2ccncc2)c1F` [Compound 311, 1-(4-{4-[(4-{6-[4-(5-chloro-3-{[ethyl(methyl)sulfamoyl]amino}-2-fluorophenyl)-3-(pyridin-4-yl)-1H-pyrazol-1-yl]pyridin-3-yl}piperazin-1-yl)methyl]piperidin-1-yl}phenyl)-1,3-diazinane-2,4-dione]: the 50% degradation concentration (DC50) was 10 to 50 nM at BRAF V600E (setting [9]), 50 to 500 nM at BRAF G466V (setting [11]), over 500 nM on BRAF G469A (setting [13]) and 10 to 50 nM on BRAF D594G (setting [15]). Also, the Dmax at BRAF V600E (setting [10]) was over 70%; on BRAF G466V (setting [12]), 30 to 70%; at BRAF G469A (setting [14]) it was 30 to 70%; on BRAF D594G (setting [16]), 30 to 70%.
As for `CCCS(=O)(=O)Nc1cccc(-c2nc(C3CCN(C(=O)C4CCN(CC5CCN(c6ccc([C@H]7CCC(=O)NC7=O)cc6)CC5)CC4)CC3)sc2-c2ccnc(NC)n2)c1F` [Compound 204, N-{3-[2-(1-{1-[(1-{4-[(3R)-2,6-dioxopiperidin-3-yl]phenyl}piperidin-4-yl)methyl]piperidine-4-carbonyl}piperidin-4-yl)-5-[2-(methylamino)pyrimidin-4-yl]-1,3-thiazol-4-yl]-2-fluorophenyl}propane-1-sulfonamide], the DC50 on BRAF V600E (setting [1]) was under 10 nM; on BRAF G466V (setting [3]) it was over 500 nM; on BRAF G469A (setting [5]), over 500 nM; on BRAF D594G (setting [7]) it was over 500 nM. For the same molecule, the Dmax was over 70% on BRAF V600E (setting [2]), 30 to 70% on BRAF G466V (setting [4]), 30 to 70% at BRAF G469A (setting [6]) and 30 to 70% on BRAF D594G (setting [8]).
In the case of `CCCS(=O)(=O)Nc1cccc(-c2nc(C(C)(C)C)sc2-c2ccnc(NC3CC4(C3)CN(C(=O)CN3CCC5(CC3)CN(c3ccc6c(c3)C(=O)N(C3CCC(=O)NC3=O)C6=O)C5)C4)n2)c1F` (racemic) [Compound 152, Rac-N-(3-{2-tert-butyl-5-[2-({2-[2-(2-{2-[(3R)-2,6-dioxopiperidin-3-yl]-1,3-dioxo-2,3-dihydro-1H-isoindol-5-yl}-2,7-diazaspiro[3.5]nonan-7-yl)acetyl]-2-azaspiro[3.3]heptan-6-yl}amino)pyrimidin-4-yl]-1,3-thiazol-4-yl}-2-fluorophenyl)propane-1-sulfonamide], the DC50 on BRAF V600E (setting [1]) was 10 to 50 nM; on BRAF G466V (setting [3]), over 500 nM; on BRAF G469A (setting [5]), over 500 nM; on BRAF D594G (setting [7]), over 500 nM. In addition, the Dmax is 30 to 70% on BRAF V600E (setting [2]), under 30% at BRAF G466V (setting [4]), under 30% at BRAF G469A (setting [6]) and 30 to 70% at BRAF D594G (setting [8]).
As for `CCCS(=O)(=O)Nc1cccc(-c2nc(C(C)(C)C)sc2-c2ccnc(Nc3ccc4c(c3)CCN(CC3CCN(c5ccc6c(=O)n(C7CCC(=O)NC7=O)ccc6c5)CC3)C4)n2)c1F` (racemic) [Compound 85, Rac-N-(3-{2-tert-butyl-5-[2-({2-[(1-{2-[(3R)-2,6-dioxopiperidin-3-yl]-1-oxo-1,2-dihydroisoquinolin-6-yl}piperidin-4-yl)methyl]-1,2,3,4-tetrahydroisoquinolin-6-yl}amino)pyrimidin-4-yl]-1,3-thiazol-4-yl}-2-fluorophenyl)propane-1-sulfonamide], the DC50 on BRAF V600E (setting [1]) was 10 to 50 nM; at BRAF G466V (setting [3]) it was over 500 nM; at BRAF G469A (setting [5]), over 500 nM; at BRAF D594G (setting [7]), over 500 nM. The Dmax on BRAF V600E (setting [2]) was 30 to 70%; on BRAF G466V (setting [4]) it was 30 to 70%; at BRAF G469A (setting [6]), under 30%; on BRAF D594G (setting [8]), 30 to 70%.
For `O=C1CC[C@H](c2ccc(N3CCC(CN4CCN(c5ccc(-n6cc(-c7cc(Cl)cc(NS(=O)(=O)N8CC(F)C8)c7F)c(-c7ccncc7)n6)c(F)c5)CC4)CC3)cc2)C(=O)N1` [Compound 338, N-{5-chloro-3-[1-(4-{4-[(1-{4-[(3R)-2,6-dioxopiperidin-3-yl]phenyl}piperidin-4-yl)methyl]piperazin-1-yl}-2-fluorophenyl)-3-(pyridin-4-yl)-1H-pyrazol-4-yl]-2-fluorophenyl}-3-fluoroazetidine-1-sulfonamide], the DC50 on BRAF V600E (setting [9]), at BRAF G466V (setting [11]), on BRAF G469A (setting [13]) and on BRAF D594G (setting [15]) was under 10 nM throughout. Besides, the Dmax at BRAF V600E (setting [10]) is over 70%; on BRAF G466V (setting [12]), over 70%; at BRAF G469A (setting [14]) it was 30 to 70%; on BRAF D594G (setting [16]), 30 to 70%.
For `CCCS(=O)(=O)Nc1cccc(-c2nc(C(C)(C)C)sc2-c2ccnc(Nc3ccc(C4CCN(CC[C@H]5CCN(c6ccc(C7CCC(=O)NC7=O)cn6)C5)CC4)cc3)n2)c1F` (mixture of isomers) [Compound 173, N-{3-[2-tert-butyl-5-(2-{[4-(1-{2-[(3S)-1-{5-[(3RS)-2,6-dioxopiperidin-3-yl]pyridin-2-yl}pyrrolidin-3-yl]ethyl}piperidin-4-yl)phenyl]amino}pyrimidin-4-yl)-1,3-thiazol-4-yl]-2-fluorophenyl}propane-1-sulfonamide], the DC50 on BRAF V600E (setting [1]) was 10 to 50 nM; at BRAF G466V (setting [3]) it was over 500 nM; at BRAF G469A (setting [5]), over 500 nM; at BRAF D594G (setting [7]) it was over 500 nM. Moreover, the maximal degradation (Dmax) on BRAF V600E (setting [2]) is over 70%; at BRAF G466V (setting [4]), 30 to 70%; on BRAF G469A (setting [6]) it was under 30%; on BRAF D594G (setting [8]) it was 30 to 70%.
